Reference: patent US9688675B2, “1,7-naphthyridine derivatives” (Hoffmann-La Roche Inc., priority 2013, dated 2017)

What follows are compounds tested on human embryonic stem cell derived neural stem cells (NSCs) (assay: Neural Stem Cell Proliferation Assay (Neurogenesis Assay, ATP levels by CellTiterGlo)). Conditions: 96 h, compound concentration at which 150% activity of control (100%) is reached, NSC proliferation, 4 days incubation.
Assay type: cell-based
Experimental: Neural Stem Cell Proliferation Assay
Neurogenic properties of small molecules are determined based on the proliferation of human embryonic stem cell derived neural stem cells (NSCs) which were derived via a dual smad inhibition as previously described (Chambers, S. M., et al., Highly efficient neural conversion of human ES and iPS cells by dual inhibition of SMAD signaling, Nature biotechnology, 2009. 27(3): p. 275-80.)
Compounds respond is measured by the increase in cells based on ATP levels
(Promega:CellTiterGlo®) after an incubation period of 4 days.
NSCs are thawed and expanded over 3 passages. On the 14th day, NSCs are seeded in Polyornithin/Laminin coated 384 well plates at a cell density of 21′000 cells/cm^2 in a media volume of 38 μl.
4 hours after cell seeding, compound solutions are added at a volume of 2 μl. Stock solutions of the compounds (water, 5% DMSO) are diluted to obtain a dose response (11 points, dilution factor is 2), ranging from 8 μM to 8 nM. Controls are run to consistently determine the neurogenic properties of the cells:
Negative (neutral) control is cell culture Media (final DMSO concentration: 0.25%).
Positive controls are: • 1. cell culture Media+100 ng/ml FGF2 (final DMSO concentration: 0.1%) • 2. cell culture Media+20 ng/ml EGF (final DMSO concentration: 0.1%) • 3. cell culture Media+100 ng/ml Wnt3a (final DMSO concentration: 0.1%)
After 4 days incubation at 37° C., 5% CO2, the amount of ATP per well is quantified. The ATP concentration is proportional to the cell number. ATP is quantified by using the Promega CellTiterGlo® kit. The CellTiterGlo® reagents contain a cell lysis buffer, a thermo stable luciferase (UltraGlo™ recombinant luciferase), magnesium and luciferin. Luciferin reacts with ATP producing oxyluciferin, AMP and light. The luminescence signal is proportional to the ATP content.
The value of negative (neutral) control is determined for each assay plate by taking the average of 16 negative control wells. The neurogenic compound response is calculated for each compound as (compound/Negative Control)*100.
The values of EC150 from the dose response curve are determined for each test compound. The EC150 is the compound concentration at which 150% activity of control (100%) is reached.
For `COc1cccc(-c2cncc3ncc(C(N)=O)cc23)c1` [Example 22, 5-(3-Methoxyphenyl)-1,7-naphthyridine-3-carboxamide], the EC (150% of control) was 1.93 µM.
Compound `NC(=O)c1cnc2cncc(-c3ccccc3F)c2c1` [Example 3, 5-(2-Fluorophenyl)-1,7-naphthyridine-3-carboxamide] has an EC (150% of control) of 1.12 µM.
`NC(=O)c1cnc2cncc(-c3ccc(F)cc3)c2c1` [Example 5, 5-(4-Fluorophenyl)-1,7-naphthyridine-3-carboxamide] was tested, and the EC (150% of control) was 1.1 µM.
In the case of `O=C(NCC(F)(F)F)c1cnc2cncc(-c3ccccc3F)c2c1` [Example 14, 5-(2-Fluorophenyl)-N-(2,2,2-trifluoroethyl)-1,7-naphthyridine-3-carboxamide], the EC (150% of control) is reported as 1.21 µM.
`NC(=O)c1cnc2cncc(C3=CCOCC3)c2c1` [Example 25, 5-(3,6-Dihydro-2H-pyran-4-yl)-1,7-naphthyridine-3-carboxamide] gave an EC (150% of control) of 4.41 µM.
`NC(=O)c1cnc2cncc(-c3ccc(F)c(F)c3)c2c1` [Example 6, 5-(3,4-Difluorophenyl)-1,7-naphthyridine-3-carboxamide] was tested, and the EC (150% of control) was 0.55 µM.
Work on `COC(=O)c1cncc2ncc(C(N)=O)cc12` [Example 24, Methyl 3-carbamoyl-1,7-naphthyridine-5-carboxylate] yielded an EC (150% of control) of 3.2 µM.
Work on `NC(=O)c1cnc2cncc(-c3ccc(C(F)(F)F)cc3)c2c1` [Example 10, 5-(4-(Trifluoromethyl)phenyl)-1,7-naphthyridine-3-carboxamide] yielded an EC (150% of control) of 0.3 µM.
With `NC(=O)c1cnc2cncc(-c3ccc(Cl)cc3F)c2c1` [Example 12, 5-(4-Chloro-2-fluorophenyl)-1,7-naphthyridine-3-carboxamide] the EC (150% of control) was 0.07 µM.
Work on `NC(=O)c1cnc2cncc(N3CCC(F)(F)CC3)c2c1` [Example 26, 5-(4,4-Difluoropiperidin-1-yl)-1,7-naphthyridine-3-carboxamide] yielded an EC (150% of control) of 2.09 µM.
Compound `O=C(NCC(F)(F)F)c1cnc2cncc(-c3ccc(F)cc3F)c2c1` [Example 15, 5-(2,4-Difluorophenyl)-N-(2,2,2-trifluoroethyl)-1,7-naphthyridine-3-carboxamide] has an EC (150% of control) of 1.36 µM.
Compound `CS(=O)(=O)c1cccc(CNC(=O)c2cnc3cncc(-c4ccc(Cl)cc4)c3c2)c1` [Example 19, 5-(4-Chlorophenyl)-N-(3-(methylsulfonyl)benzyl)-1,7-naphthyridine-3-carboxamide] has an EC (150% of control) of 3.18 µM.
For `NC(=O)c1cnc2cncc(-c3ccc(Cl)cc3)c2c1` [Example 1, 5-(4-Chlorophenyl)-1,7-naphthyridine-3-carboxamide], the EC (150% of control) was 0.09 µM.
With `NC(=O)c1cnc2cncc(-c3cc(F)c(F)c(F)c3)c2c1` [Example 4, 5-(3,4,5-Trifluorophenyl)-1,7-naphthyridine-3-carboxamide] the EC (150% of control) was 1.9 µM.
`NC(=O)c1cnc2cncc(-c3cccc(OC(F)(F)F)c3)c2c1` [Example 23, 5-(3-(Trifluoromethoxy)phenyl)-1,7-naphthyridine-3-carboxamide] was tested, and the EC (150% of control) was 5.73 µM.
`CS(=O)(=O)CCNC(=O)c1cnc2cncc(-c3ccc(Cl)cc3F)c2c1` [Example 13, 5-(4-Chloro-2-fluorophenyl)-N-(2-(methylsulfonyl)ethyl)-1,7-naphthyridine-3-carboxamide] gave an EC (150% of control) of 1.51 µM.
For `CS(=O)(=O)c1ccc(-c2cncc3ncc(C(N)=O)cc23)cc1` [Example 9, 5-(4-(Methylsulfonyl)phenyl)-1,7-naphthyridine-3-carboxamide], the EC (150% of control) was 1.58 µM.
`Cc1nc2cncc(-c3ccc(Cl)cc3)c2cc1C(N)=O` [Example 11, 5-(4-Chlorophenyl)-2-methyl-1,7-naphthyridine-3-carboxamide] was tested, and the EC (150% of control) was 0.12 µM.
In the case of `O=C(NCC(F)(F)F)c1cnc2cncc(-c3ccc(F)cc3)c2c1` [Example 17, 5-(4-Fluorophenyl)-N-(2,2,2-trifluoroethyl)-1,7-naphthyridine-3-carboxamide], the EC (150% of control) is reported as 1.13 µM.
`NC(=O)c1cnc2cncc(-c3ccc(OC(F)(F)F)cc3)c2c1` [Example 2, 5-(4-(Trifluoromethoxy)phenyl)-1,7-naphthyridine-3-carboxamide] was tested, and the EC (150% of control) was 0.47 µM.
With `NC(=O)c1cnc2cncc(-c3ccc(F)cc3F)c2c1` [Example 7, 5-(2,4-Difluorophenyl)-1,7-naphthyridine-3-carboxamide] the EC (150% of control) was 0.48 µM.
`CS(=O)(=O)c1ccc(CNC(=O)c2cnc3cncc(-c4ccc(Cl)cc4)c3c2)cc1` [Example 18, 5-(4-Chlorophenyl)-N-(4-(methylsulfonyl)benzyl)-1,7-naphthyridine-3-carboxamide] gave an EC (150% of control) of 0.25 µM.
`NC(=O)c1cnc2cncc(N3CCOCC3)c2c1` [Example 16, 5-Morpholino-1,7-naphthyridine-3-carboxamide] gave an EC (150% of control) of 1.43 µM.
`NC(=O)c1cnc2cncc(-c3ccc(Cl)cc3Cl)c2c1` [Example 28, 5-(2,4-Dichlorophenyl)-1,7-naphthyridine-3-carboxamide] showed an EC (150% of control) of 0.46 µM.
For `COCCNC(=O)c1cnc2cncc(-c3ccc(Cl)cc3)c2c1` [Example 21, 5-(4-Chlorophenyl)-N-(2-methoxyethyl)-1,7-naphthyridine-3-carboxamide], the EC (150% of control) was 4.6 µM.
`N#Cc1ccc(-c2cncc3ncc(C(N)=O)cc23)cc1` [Example 8, 5-(4-Cyanophenyl)-1,7-naphthyridine-3-carboxamide] gave an EC (150% of control) of 1.37 µM.
`O=C(NCC1CC1)c1cnc2cncc(-c3ccc(Cl)cc3)c2c1` [Example 20, 5-(4-Chlorophenyl)-N-(cyclopropylmethyl)-1,7-naphthyridine-3-carboxamide] was tested, and the EC (150% of control) was 4.24 µM.
`NC(=O)c1cnc2cncc(-c3ccc(Cl)nc3)c2c1` [Example 27, 5-(6-Chloropyridin-3-yl)-1,7-naphthyridine-3-carboxamide] was tested, and the EC (150% of control) was 1.08 µM.
